Test results as given in ChEMBL document CHEMBL1148601, “Inhibition of cytosolic phospholipase A2alpha: hit to lead optimization” (J Med Chem, 2006).
The source made the active and inactive calls. No cut-off for these calls is given here.

Legend:
[1] = molecular target: T1, Cytosolic phospholipase A2 (Homo sapiens, UniProt P47712); experiment: Inhibition of cytosolic phospholipase A2-alpha in GLU micelle assay
T1 sequence (P47712 whole entry): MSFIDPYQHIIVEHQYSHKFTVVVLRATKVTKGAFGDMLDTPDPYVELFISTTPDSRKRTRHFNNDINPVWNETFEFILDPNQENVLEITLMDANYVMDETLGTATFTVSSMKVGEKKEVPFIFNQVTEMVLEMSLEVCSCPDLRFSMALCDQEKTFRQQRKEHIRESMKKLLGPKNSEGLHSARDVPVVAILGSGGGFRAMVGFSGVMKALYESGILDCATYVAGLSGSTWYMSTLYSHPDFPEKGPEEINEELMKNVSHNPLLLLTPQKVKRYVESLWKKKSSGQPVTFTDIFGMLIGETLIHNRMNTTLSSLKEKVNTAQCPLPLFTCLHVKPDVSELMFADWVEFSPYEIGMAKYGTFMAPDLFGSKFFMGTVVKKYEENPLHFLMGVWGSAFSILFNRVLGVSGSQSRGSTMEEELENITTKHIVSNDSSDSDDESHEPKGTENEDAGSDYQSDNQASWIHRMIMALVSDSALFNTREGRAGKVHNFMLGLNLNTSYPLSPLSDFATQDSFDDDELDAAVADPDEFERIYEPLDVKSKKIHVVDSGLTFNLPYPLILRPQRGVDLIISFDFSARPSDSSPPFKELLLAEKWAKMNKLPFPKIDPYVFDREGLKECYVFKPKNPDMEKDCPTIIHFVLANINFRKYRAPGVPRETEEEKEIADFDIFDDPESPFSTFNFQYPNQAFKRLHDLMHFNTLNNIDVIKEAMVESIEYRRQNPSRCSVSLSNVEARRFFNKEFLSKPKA

[2] = Inhibition of TXB2 production in Sprague-Dawley rat whole blood; type: functional, tissue-based
[3] = Inhibition of LTB4 production expressed in MC9 cells in presence of 4 megacells/mL; type: functional, cell-based; conditions: Mus musculus
[4] = Inhibition of LTB4 production expressed in MC9 cells in presence of 1 megacells/mL; type: functional, cell-based; conditions: Mus musculus
[5] = Inhibition of LTB4 production expressed in MC9 cells in presence of 8 megacells/mL; type: functional, cell-based; conditions: Mus musculus
[6] = species on record: Rattus norvegicus; experiment: (§1) Inhibition of TXB2 production in Sprague-Dawley rat whole blood at 10 uM; type: functional, tissue-based
[7] = as §1; type: functional, tissue-based
[8] = Plasma concentration in rat; type: ADME, organism-based
[9] = Inhibition of PGF2-alpha production in MC9 cells at 1.5 uM; type: functional; conditions: Mus musculus
[10] = Inhibition of LTB4 production in MC9 cells at 1.5 uM; type: functional; conditions: Mus musculus
[11] = Inhibition of PGF2-alpha production in the presence of exogenous arachidonic acid in MC9 cell at 1.5 uM; type: functional; conditions: Mus musculus
[12] = Inhibition of TXB2 production in human whole blood; type: functional, tissue-based
[13] = Oral bioavailability in rat; type: ADME, organism-based; conditions: in vivo
[14] = Inhibition of LTB4 production in human whole blood; type: functional, tissue-based
[15] = Inhibition of PGF2-alpha production in the presence of exogenous arachidonic acid in MC9 cells at 0.5 uM; type: functional; conditions: Mus musculus
[16] = Inhibition of PGF2-alpha production in MC9 cells at 0.5 uM; type: functional; conditions: Mus musculus
[17] = Inhibition of LTB4 production in MC9 cells at 0.5 uM; type: functional; conditions: Mus musculus

Structure (SMILES)	IC50 [1]	IC50 [2]	further results
Cc1c(CCS(=O)(=O)c2ccc(C(=O)O)cc2)c2c(Cl)cccc2n1C(c1ccccc1)c1ccccc1	2 µM	12 µM	–
Cc1c(CCS(=O)(=O)c2ccc(C(=O)O)cc2)c2c(Cl)c(Cl)ccc2n1C(c1ccccc1)c1ccccc1	1 µM	4 µM	–
Cc1c(CCS(=O)(=O)c2ccc(C(=O)O)cc2)c2ccc(Cl)cc2n1C(c1ccccc1)c1ccccc1	4 µM	5 µM	–
COc1cc(C(=O)O)ccc1Cc1cn(C(c2ccccc2)c2ccccc2)c2cc(Cl)ccc12	160 µM	> 400 µM	IC50 [4]: 0.8 µM; IC50 [5]: 8.3 µM; IC50 [3]: 1.5 µM
Cc1c(CC[S+]([O-])c2ccc(C(=O)O)cc2)c2cc(Cl)ccc2n1C(c1ccccc1)c1ccccc1 (centres undefined)	1 µM	3 µM	–
Cc1c(CC(=O)O)c2cc(Cl)ccc2n1C(c1ccccc1)c1ccccc1	165 µM	< 100 µM	–
Cc1c(CCOc2ccc(C(=O)O)c(Cl)c2)c2cc(Cl)ccc2n1C(c1ccccc1)c1ccccc1	7 µM	25 µM	–
Cc1c(CCNc2ccc(C(=O)O)cc2)c2cc(Cl)ccc2n1C(c1ccccc1)c1ccccc1	23 µM	> 25 µM	–
Cc1c(CCOc2cccc(C(=O)O)c2)c2cc(Cl)ccc2n1C(c1ccccc1)c1ccccc1	120 µM	> 50 µM	–
Cc1c(CCOc2ccc(C(=O)O)cn2)c2cc(Cl)ccc2n1C(c1ccccc1)c1ccccc1	85 µM	–	IC50 [7]: Not Active
Cc1c(CCOc2ccc(C(=O)O)c(F)c2)c2cc(Cl)ccc2n1C(c1ccccc1)c1ccccc1	2 µM	8 µM	–
Cc1c(CCS(=O)(=O)c2ccc(C(=O)O)cc2)c2cc(F)ccc2n1C(c1ccccc1)c1ccccc1	1 µM	5 µM	–
COc1c(Cc2cn(C(c3ccccc3)c3ccccc3)c3cc(Cl)ccc23)cccc1C(=O)O	120 µM	–	–
Cc1c(C(=O)C(=O)Nc2ccc(C(=O)O)cc2)c2cc(Cl)ccc2n1C(c1ccccc1)c1ccccc1	26 µM	25 µM	–
Cc1c(CCS(=O)(=O)c2ccc(C(=O)O)cc2)c2cc(Cl)c(Cl)cc2n1C(c1ccccc1)c1ccccc1	3 µM	2 µM	–
O=C(O)c1cccc(CC(O)Cc2cn(C(c3ccccc3)c3ccccc3)c3cc(Cl)ccc23)c1 (centres undefined)	90 µM	–	–
Cc1c(CCS(=O)(=O)c2ccc(C(=O)O)cc2)c2cccc(Cl)c2n1C(c1ccccc1)c1ccccc1	6 µM	10 µM	–
Cc1c(CCS(=O)(=O)c2ccc(CCC(=O)O)cc2)c2cc(Cl)ccc2n1C(c1ccccc1)c1ccccc1	0.5 µM	0.8 µM	clearance [8]: 47 mL/min/kg; inhibition at 0.5 µM [15]: 2%; inhibition at 0.5 µM [16]: 100%; IC50 [12]: 1.4 µM; bioavailability [13]: 11%; inhibition at 0.5 µM [17]: 100%; IC50 [14]: 0.9 µM
Cc1c(CCOc2ccc(C(=O)O)cc2Cl)c2cc(Cl)ccc2n1C(c1ccccc1)c1ccccc1	11 µM	25 µM	–
Cc1c(CCS(=O)(=O)c2ccc(C(=O)O)cc2)c2cc(Cl)ccc2n1C(c1ccccc1)c1ccccc1	0.8 µM	2 µM	clearance [8]: 44 mL/min/kg; inhibition at 0.5 µM [15]: 8%; inhibition at 0.5 µM [16]: 72%; IC50 [12]: 8.4 µM; bioavailability [13]: 39%; inhibition at 0.5 µM [17]: 82%; IC50 [14]: 6.3 µM
Cc1c(CCOc2cc(C(=O)O)on2)c2cc(Cl)ccc2n1C(c1ccccc1)c1ccccc1	40 µM	> 50 µM	–

Continued, in another order:

IC50 [1]	IC50 [2]	Structure (SMILES)	further results
0.04 µM	12 µM	O=C(COc1ccc(SCCCCCc2ccccc2)cc1)COc1ccc(C(=O)O)cc1	IC50 [3]: 1.5 µM
2 µM	–	Cc1c(CCCc2ccc(C(=O)O)cc2)c2cc(Cl)ccc2n1C(c1ccccc1)c1ccccc1	–
> 10 µM	48 µM	Cc1c(CCOc2ccc(CC(=O)O)cc2)c2cc(Cl)ccc2n1C(c1ccccc1)c1ccccc1	–
3 µM	2 µM	Cc1c(CCOc2ccc(CCC(=O)O)cc2)c2cc(Cl)ccc2n1C(c1ccccc1)c1ccccc1	–
> 50 µM	> 50 µM	O=C(O)c1ccc(OCCc2c(-c3ccccc3)n(C(c3ccccc3)c3ccccc3)c3ccc(Cl)cc23)cc1	–
20 µM	50 µM	Cc1c(CCOc2ccc(CCCC(=O)O)cc2)c2cc(Cl)ccc2n1C(c1ccccc1)c1ccccc1	–
40 µM	100 µM	O=C(O)c1ccc(OCC(O)Cc2cn(C(c3ccccc3)c3ccccc3)c3cc(Cl)ccc23)cc1 (centres undefined)	–
340 µM	> 100 µM	O=C(O)c1ccc(OCC(O)COc2ccc(SCCCCCc3ccccc3)cc2)cc1 (centres undefined)	–
18 µM	25 µM	Cc1c(CC[S+]([O-])CCc2ccc(C(=O)O)cc2)c2cc(Cl)ccc2n1C(c1ccccc1)c1ccccc1 (centres undefined)	–
8 µM	–	Cc1c(CCOc2ccc(C(=O)O)cc2)c2cc(N)ccc2n1C(c1ccccc1)c1ccccc1	inhibition [6]: inactive
3 µM	7 µM	COc1ccc2c(c1)c(CCS(=O)(=O)c1ccc(C(=O)O)cc1)c(C)n2C(c1ccccc1)c1ccccc1	–
20 µM	> 25 µM	COC(=O)c1ccc(OCCc2c(C(C)(C)C)n(C(c3ccccc3)c3ccccc3)c3ccc(Cl)cc23)cc1	–
2 µM	10 µM	Cc1c(CCSc2ccc(C(=O)O)cc2)c2cc(Cl)ccc2n1C(c1ccccc1)c1ccccc1	–
3 µM	7 µM	Cc1c(CCOc2ccc(C(=O)O)cc2)c2cc(Cl)ccc2n1C(c1ccccc1)c1ccccc1	clearance [8]: 3.2 mL/min/kg; inhibition at 1.5 µM [9]: 81%; inhibition at 1.5 µM [10]: 96%; inhibition at 1.5 µM [11]: -8%; IC50 [12]: 34 µM; bioavailability [13]: 2.6%; IC50 [14]: 30 µM
22 µM	> 10 µM	Cc1c(CCOc2ccc(C(=O)O)cc2)c2cc(N3CCOCC3)ccc2n1C(c1ccccc1)c1ccccc1	–
38 µM	13 µM	Cc1c(CCOC(=O)Nc2ccc(C(=O)O)cc2)c2cc(Cl)ccc2n1C(c1ccccc1)c1ccccc1	–
93 µM	14 µM	Cc1c(CCS(=O)(=O)CCc2ccc(C(=O)O)cc2)c2cc(Cl)ccc2n1C(c1ccccc1)c1ccccc1	–
33 µM	9 µM	Cc1c(CCOc2ccc(C(=O)O)cc2)c2cc(-c3ccccc3)ccc2n1C(c1ccccc1)c1ccccc1	–
5 µM	8 µM	Cc1c(CCOc2ccc(C(=O)O)cc2)c2cc([N+](=O)[O-])ccc2n1C(c1ccccc1)c1ccccc1	–
2 µM	6 µM	Cc1c(CCS(=O)(=O)c2ccc(C(=O)O)cc2)c2ccccc2n1C(c1ccccc1)c1ccccc1	–
30 µM	50 µM	Cc1c(CCC(=O)NCc2ccc(C(=O)O)cc2)c2cc(Cl)ccc2n1C(c1ccccc1)c1ccccc1	–
2 µM	9 µM	Cc1c(CCCCOc2ccc(C(=O)O)cc2)c2cc(Cl)ccc2n1C(c1ccccc1)c1ccccc1	–
6 µM	13 µM	Cc1c(CCOc2ccc(C(=O)O)cc2)c2ccc(Cl)cc2n1C(c1ccccc1)c1ccccc1	–
5 µM	14 µM	O=C(O)c1ccc(OCCc2cn(C(c3ccccc3)c3ccccc3)c3ccc(Cl)cc23)cc1	–
2 µM	3 µM	Cc1c(CCOc2ccc(C(=O)O)cc2)c2cc(Br)ccc2n1C(c1ccccc1)c1ccccc1	–
